In US20190136188A1, “4HPR AND ITS USE IN THE CULTURING OF HEMATOPOIETIC STEM CELLS” (UNIVERSITY HEALTH NETWORK, priority 2016, published 2019):

Assays:
[1] = test system: lineage-depleted CB (lin-CB) cells; test: Dose titration of 4HPR, cell viability; assay type: cell-based; details: Homo sapiens, 72 h, 3 days post-treatment, read-out: concentration giving half maximal cell viability compared to vehicle control
Protocol: (A) Dose response of varying [4HPR] in CB at day 3 post-treatment showing 2 uM 4HPR gives the relative half maximal number of viable cells compared to control. All experiments following are at this 4HPR concentration unless otherwise indicated. […] (C) LC/MS was used to profile the ceramide (Cer), dihydroceramide (dhCer), sphingosine (sph), dihydrosphingosine (dhSph), S1P and dihydro-S1P (dhS1P) levels in lin− CB cells cultured for 8 days with control or 4HPR (n=2). […] (D) HSC, MPP, or GMP were sorted into methylcellulose for CFC assays in the presence of control or 4HPR and colonies were blindly scored following 10-11 days for (D) colonies/100 cells and ((E) colony distribution are shown (n=7). (F) Flow cytometry for erythroid (GlyA+) and monocytic (CD14+) markers in live cells from pooled CFC colonies were scored (n=6). (F) Relative number of colonies from CFC assays comparing the effect of 4HPR or ATRA (n=3) on sorted HSC, MPP or GMP.
However, the functional consequence of 4HPR treatment on human cord blood primitive cells is unknown. […]

[2] = test system: ex vivo expanded human CB cells in NSG mice; test: Primary xenotransplantation of ex vivo expanded CB cells, 16 weeks
Text: (A) Experimental scheme (B) Representative FACS analysis data of in vitro culture for 16 HSC dose time course (n=3). The number of (C) viable cells, (D) CD15+ myeloid cells, (E) GlyA+ erythroid cells, and (F) CD34+ primitive cells measured for the 16 LTRC dose with HTS flow cytometry analysis at day 8 post-treatment for vehicle control or 4HPR prior to xenotransplantation (n=5 biological replicates, 4 in technical triplicate, marked with different symbols). (G) Human CD45+ engraftment at 16 weeks post transplant in injected femur (n=4, 5 mice/biological experiment). Lineage analysis of control or 4HPR transplanted mice from FIG. 5G for (H) B lymphoid, (I) myeloid, (J) erythroid, and (K) primitive CD34+ at the 16 LTRC dose. (L) CD45+ cells were isolated from 5 biological experiments of the 16 LTRC dose primary mice and transplanted at limiting doses into secondary recipients for 16 weeks. Human CD45+ marking of >0.1% was considered positive for secondary engraftment. Limiting dilutation analysis was performed using ELDA software and the long-term repopulating cell (LTRC) frequency for each biological replicate plotted and the average LTRC frequency calculated.
All bones for each mouse were pooled following chimerism analysis and frozen for subsequent CD34 hierarchy analysis. Flow cytometry analysis were performed on CD34+ enriched cells using Miltenyl human CD34 enrichment protocol on thawed samples for the human CB hierarchy at the 16 HSC dose from 4 biological experiments, marked with different symbols (n=4 mice per biological experiment). The number of (B) CD34+CD19− cells, (C) CD34+CD38-, (D) CD34+CD38+, (E) HSC, (F) MPP, (G) MLP, and (I) GMP were quantitated from each mouse at 16 weeks post-transplant. Representative HSC hierarchy analysis scheme of CD34 enriched cells isolated from mice 16 weeks post-transplantation engrafted with ex vivo cultured CB cells in the presence of (J) vehicle control (black) or (K) 4HPR (green).
(A) The number of cells following 8 days of ex vivo culture at the 16 LTRC dose grown as in FIG. 5A for the indicated drug treatments (n=2). […] (2 biological replicates) (E) CD45+ cells were isolated from 2 biological experiments of the 16 LTRC dose primary mice and transplanted at limiting doses into secondary recipients for 16 weeks. […] Limiting dilutation analysis was performed using ELDA software and the long-term repopulating cell (LTRC) frequency for each biological replicate plotted and the average LTRC frequency calculated.
To determine if 4HPR preserves functional HSC in CB liquid culture, we devised an experimental protocol to test the effect of 4HPR treatment in short-term ex vivo expansion culture on repopulation in serial NSG xenotransplantation to functionally read out LT-HSC (FIG. 5A). […]

CC1=C(/C=C/C(C)=C/C=C/C(C)=C/C(=O)Nc2ccc(O)cc2)C(C)(C)CCC1 [4HPR, N-(4hydroxyphenyl)retinamide]
IC50 [1]: 2000 nM
lineage distribution for B lymphoid, myeloid and erythroid ([2]; 16 HSC dose, 16 weeks): comparable between ctrl and 4HPR transplanted cells
primitive lineage negative CD34+ cells in transplanted mice ([2]; 16 LTRC dose, 16 weeks): equally prevalent
human CD45 chimerism ([2]; 16 weeks post transplant, all cell doses): the same CD45 chimerism as vehicle control
HSPC populations of the HSC hierarchy in individual mice ([2]; 16 weeks post-transplant, control vs 4HPR expanded cells): on average identical
